From ChEMBL document CHEMBL1201862, “PubChem BioAssay data set” (2004)
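Method: 48-hour compound exposure of cells in 96-well plates, five concentrations, linear interpolation of endpoints. GI50 = concentration required for 50% inhibition of growth.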 The source made the active and inactive calls. Rule as the data show it: active = GI50 up to about 1.1 µM and inactive = higher.

Assays:
Assay in all cases: NCI anticancer screen, dose series, 48 h
[1] = tested on: 786-0
[2] = tested on: A498
[3] = tested on: A549
[4] = tested on: ACHN
[5] = tested on: BT-549
[6] = tested on: DU-145
[7] = tested on: EKVX
[8] = tested on: HCT-116
[9] = tested on: HCT-15
[10] = tested on: HL-60
[11] = tested on: HOP-62
[12] = tested on: HOP-92
[13] = tested on: HT-29
[14] = tested on: Hs-578T
[15] = tested on: IGROV-1
[16] = tested on: K562
[17] = tested on: KM12
[18] = tested on: LOX IMVI
[19] = tested on: M14
[20] = tested on: MCF7
[21] = tested on: MDA-MB-231
[22] = tested on: MDA-MB-435
[23] = tested on: MDA-N
[24] = tested on: MOLT-4
[25] = tested on: Malme-3M
[26] = tested on: NCI-H226
[27] = tested on: NCI-H460
[28] = tested on: NCI-H522
[29] = tested on: NCI/ADR-RES
[30] = tested on: OVCAR-3
[31] = tested on: OVCAR-4
[32] = tested on: OVCAR-5
[33] = tested on: OVCAR-8
[34] = tested on: PC-3
[35] = tested on: RPMI-8226
[36] = tested on: SF-268
[37] = tested on: SF-295
[38] = tested on: SF-539
[39] = tested on: SK-MEL-28
[40] = tested on: SK-MEL-2
[41] = tested on: SK-OV-3
[42] = tested on: SN12C
[43] = tested on: SNB-19
[44] = tested on: SR
[45] = tested on: SW-620
[46] = tested on: TK-10
[47] = tested on: U-251
[48] = tested on: UACC-257
[49] = tested on: UACC-62
[50] = tested on: UO-31
[51] = tested on: CAKI-1
[52] = tested on: CCRF-CEM
[53] = tested on: COLO 205
[54] = tested on: HCC 2998
[55] = tested on: NCI-H23
[56] = tested on: SNB-75
[57] = tested on: T47D

For `Cc1nnc(N/N=C2/C(=O)Nc3ccccc32)nc1O`, the GI50 [1] was > 100 µM (inactive), the GI50 [2] was > 100 µM (inactive) and the GI50 [3] was > 100 µM (inactive). The GI50 [4] was > 100 µM (inactive), the GI50 [5] was > 100 µM (inactive) and the GI50 [6] was > 100 µM (inactive). The GI50 [7] was > 100 µM (inactive), the GI50 [8] was > 100 µM (inactive) and the GI50 [9] was greater than 100 µM. The GI50 [10] was > 100 µM (inactive), the GI50 [11] was > 100 µM (inactive) and the GI50 [12] was > 100 µM (inactive). For the same compound, the GI50 [13] was > 100 µM (inactive), the GI50 [14] was > 100 µM (inactive) and the GI50 [15] was > 100 µM (inactive). The GI50 [16] was > 100 µM (inactive), the GI50 [17] was > 100 µM (inactive) and the GI50 [18] was > 100 µM (inactive). For the same compound, the GI50 [19] was > 100 µM (inactive), the GI50 [20] was > 100 µM (inactive) and the GI50 [21] was > 100 µM (inactive). The GI50 [22] was > 100 µM (inactive), the GI50 [23] was > 100 µM (inactive) and the GI50 [24] was > 100 µM (inactive). For the same compound, the GI50 [25] was 72.8 µM (inactive), the GI50 [26] was > 100 µM (inactive) and the GI50 [27] was > 100 µM (inactive). For the same compound, the GI50 [28] was > 100 µM (inactive), the GI50 [29] was > 100 µM (inactive) and the GI50 [30] was > 100 µM (inactive). For the same compound, the GI50 [31] was > 100 µM (inactive), the GI50 [32] was > 100 µM (inactive) and the GI50 [33] was > 100 µM (inactive). For the same compound, the GI50 [34] was > 100 µM (inactive), the GI50 [35] was > 100 µM (inactive) and the GI50 [36] was > 100 µM (inactive). The GI50 [37] was > 100 µM (inactive), the GI50 [38] was > 100 µM (inactive) and the GI50 [39] was > 100 µM (inactive). The GI50 [40] was > 100 µM (inactive), the GI50 [41] was > 100 µM (inactive) and the GI50 [42] was > 100 µM (inactive). The GI50 [43] was > 100 µM (inactive), the GI50 [44] was > 100 µM (inactive) and the GI50 [45] was > 100 µM (inactive). For the same compound, the GI50 [46] was > 100 µM (inactive), the GI50 [47] was > 100 µM (inactive) and the GI50 [48] was > 100 µM (inactive). The GI50 [49] was > 100 µM (inactive) and the GI50 [50] was > 100 µM (inactive).
With `CC(C)(C)N/N=C(\C(=O)NC1=C(Cl)C(=O)c2ccccc2C1=O)C1C=CCS1(=O)=O` (centres undefined) the GI50 [1] was 22.4 µM (inactive), the GI50 [2] was 21.2 µM (inactive) and the GI50 [3] was 16.9 µM (inactive). For the same compound, the GI50 [4] was 16.1 µM (inactive), the GI50 [5] was 12.4 µM (inactive) and the GI50 [51] was 18.4 µM (inactive). The GI50 [52] was > 100 µM (inactive), the GI50 [53] was 16.6 µM (inactive) and the GI50 [6] was 11.1 µM (inactive). For the same compound, the GI50 [7] was 16.5 µM (inactive), the GI50 [54] was 36.1 µM (inactive) and the GI50 [8] was 15.5 µM (inactive). The GI50 [9] was 7.06 µM, the GI50 [10] was > 100 µM (inactive) and the GI50 [12] was 14.1 µM (inactive). The GI50 [13] was 14.4 µM (inactive), the GI50 [14] was 19.5 µM (inactive) and the GI50 [15] was 10 µM (inactive). For the same compound, the GI50 [16] was > 100 µM (inactive), the GI50 [17] was 16 µM (inactive) and the GI50 [18] was 7.98 µM (inactive). The GI50 [19] was 11.5 µM (inactive), the GI50 [20] was 13.1 µM (inactive) and the GI50 [21] was 14.6 µM (inactive). The GI50 [23] was 2.44 µM (inactive), the GI50 [24] was 66.7 µM (inactive) and the GI50 [25] was 2.27 µM (inactive). The GI50 [26] was 12.6 µM (inactive), the GI50 [55] was 8.15 µM (inactive) and the GI50 [27] was 6.84 µM (inactive). The GI50 [28] was 12.5 µM (inactive), the GI50 [29] was 22 µM (inactive) and the GI50 [30] was 2.65 µM (inactive). For the same compound, the GI50 [31] was 16.4 µM (inactive), the GI50 [32] was 21.2 µM (inactive) and the GI50 [33] was 19.8 µM (inactive). The GI50 [34] was 18.1 µM (inactive), the GI50 [35] was > 100 µM (inactive) and the GI50 [36] was 21.9 µM (inactive). The GI50 [37] was 12.6 µM (inactive), the GI50 [38] was 23.1 µM (inactive) and the GI50 [39] was > 100 µM (inactive). For the same compound, the GI50 [40] was 11.2 µM (inactive), the GI50 [41] was > 100 µM (inactive) and the GI50 [42] was 15.1 µM (inactive). For the same compound, the GI50 [43] was > 100 µM (inactive), the GI50 [56] was 11.1 µM (inactive) and the GI50 [45] was > 100 µM (inactive). The GI50 [57] was 19.5 µM (inactive), the GI50 [46] was 38.9 µM (inactive) and the GI50 [47] was > 100 µM (inactive). For the same compound, the GI50 [48] was 13.6 µM (inactive), the GI50 [49] was 3.3 µM (inactive) and the GI50 [50] was 16.8 µM (inactive).
